The source of these data is US20060252731A1, “Methods of treating recurrent aphthous stomatitis” (priority 2005, published 2006).

A short description of series [1]: Plasma concentration of COL-3 in humans. The following applies: dose of about 10 to about 20 mg/day. Type of series: in vivo. As to the method:
A preferred COL is 6-demethyl-6-deoxy-4-de(dimethylamino)tetracycline (COL-3). COL-3 is administered in doses of up to about 200 mg/day, preferably about 150 mg/day, more preferably about 100 mg/day, or in amounts that result in plasma concentrations of up to about 50 μg/ml, about 40 μg/ml or about 30 μg/ml. For example, a dose of about 10 to about 20 mg/day of COL-3 produces plasma concentrations in humans of about 1.0 μg/ml.

The subject of the next series is aphthous ulcers. To be noted: continuous systemic treatment, antimicrobial amounts; cited from earlier work.
Series [2] has as its system minor aphthous ulceration. Description: Clinical study of SDD versus placebo for relief of symptoms of aphthous ulceration. The format is in vivo, human. The following applies: for number of ulcers / pain associated with ulcers: 20 mg twice a day, vis-à-vis placebo group. As to the method:
The objective of this study was to evaluate the clinical effects of a 20 mg dose of doxycycline administered twice daily (i.e., a sub-antibacterial dose of doxycycline, “SDD”) vis-à-vis a placebo administered twice daily for the relief of symptoms of aphthous ulceration.
The study was a single center, placebo-controlled, double-bind, parallel group study. The study participants were fifty patients of an oral medicine clinic. The participants were screened to identify any known predisposing factors prior to the study.
The participants were administered SDD or placebo for three months. The participants were permitted to use any additional ulcer management therapies as needed. The participants kept daily diaries to record pain caused by ulcers using the Visual Analogue Scale (VAS), and to record the number of new ulcers each day. The VAS quantified pain over a continuum represented by a horizontal line 100 mm in length.
At the baseline, the oral soft tissues and ulcer count were evaluated in each of the participants. The ulcer history of each participant was taken. At the third month, oral soft tissues and ulcer count were reevaluated.
Of the 50 participants, 25 were administered SDD; and 25 were administered placebo. Of the 50 participants, 32 were females, 18 were males; and 49 were Caucasian, and one was Asian. Thirty-three participants completed the study. Of these participants, 16 were in the SDD group and 17 were in the placebo group.

Regarding `NC(=O)C1=C(O)C[C@@H]2C[C@@H]3Cc4cccc(O)c4C(=O)C3=C(O)[C@]2(O)C1=O` [COL-3, 6-demethyl-6-deoxy-4-de(dimethylamino)tetracycline], the “plasma concentrations in humans” value in series [1] was “about 1.0 μg/ml”.

`CN(C)[C@@H]1C(O)=C(C(N)=O)C(=O)[C@@]2(O)C(O)=C3C(=O)c4c(O)cccc4[C@@](C)(O)[C@H]3C[C@@H]12` [tetracycline, Tetracycline]: the “remission phases of aphthous ulcers” value in the series on aphthous ulcers was “long remission phases”.

On to doxycycline hyclate [SDD], for which the “treatment of RAS” value in series [2] (20 mg doxycycline twice daily for three months) is given as “effectively treated RAS”. In addition, the “Mean number of ulcers present at month 3” value in series [2] (20 mg doxycycline twice daily for three months, placebo group 1.24, P >0.05) was determined as 0.69. Moreover, in series [2] (20 mg doxycycline twice daily for three months, placebo group 13.4, P >0.05), the “Mean number of days using additional treatments” value was 11.5. Besides, the “Mean total number of new ulcers in 3 months” value in series [2] (20 mg doxycycline twice daily for three months, placebo group 35, P >0.05(0.07)) is given as 17. For the same compound, in series [2], the number of ulcers result is given as “fewer ulcers” and the “pain associated with ulcers” value is “less pain”. In addition, in series [2] (listed as doxycycline hyclate), the number of ulcers result is listed as “significant reduction” and the “pain associated with ulcers” value is listed as “significant reduction”. In addition, the “Mean cumulative VAS (mm)” value in series [2] (pain by Visual Analogue Scale, daily diaries over three months, placebo group 1435, P >0.05) stood at 901 mm.
